# ChEMBL document CHEMBL1122139, “Importance of the aromatic ring in adrenergic amines. 7. Comparison of the stereoselectivity of norepinephrine N-methyltransferase for aromatic vs. nonaromatic substrates and inhibitors” (J Med Chem, 1982)
# “And” between values parts separate entries of the source, which are not always exact repeats. Equal values may be shown once.
# Experiments:
# [1] = biological target: T1, Phenylethanolamine N-methyltransferase (Bos taurus, UniProt P10938); experiment: (§1) Inhibitory activity against Norepinephrine N-methyl-transferase of bovine adrenal glands; assay type: tissue-based, Adrenal gland
# T1 sequence (P10938 whole entry): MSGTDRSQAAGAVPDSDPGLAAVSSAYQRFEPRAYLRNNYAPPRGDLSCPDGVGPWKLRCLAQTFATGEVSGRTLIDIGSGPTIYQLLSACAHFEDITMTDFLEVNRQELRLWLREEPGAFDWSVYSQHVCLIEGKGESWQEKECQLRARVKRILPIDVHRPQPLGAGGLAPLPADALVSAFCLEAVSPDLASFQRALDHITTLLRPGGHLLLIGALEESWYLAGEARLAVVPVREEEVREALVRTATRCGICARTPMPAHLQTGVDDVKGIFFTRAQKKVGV
# [2] = Vmax value was calculated in terms of nmoles of product per mg of protein per minute
# [3] = Vmax/Km x100 value of the compound
# [4] = compound: NCC(O)C1CCCCCCC1; experiment: as §1; assay type: tissue-based; settings: Adrenal gland
# [5] = compound: NC[C@@H](O)C1CCCCC1; experiment: as §1; assay type: tissue-based; settings: Adrenal gland
# [6] = compound: NC[C@@H](O)C1CCCCCCC1; experiment: as §1; assay type: tissue-based; settings: Adrenal gland
# [7] = compound: NC[C@@H](O)c1ccccc1; experiment: as §1; assay type: tissue-based; settings: Adrenal gland
# [8] = compound: NC[C@H](O)C1CCCCC1; experiment: as §1; assay type: tissue-based; settings: Adrenal gland
# [9] = compound: NC[C@H](O)C1CCCCCCC1; experiment: as §1; assay type: tissue-based; settings: Adrenal gland
# [10] = compound: NC[C@H](O)c1ccccc1; experiment: as §1; assay type: tissue-based; settings: Adrenal gland
Molecule,Ki [1] [µM],Vmax [2] [nmol/min/mg],Vmax/Km x100 [3],also measured
C[C@H](N)Cc1ccccc1 (stereo in doubt; 1b) [DEXTROAMPHETAMINE],422,–,–,–
C[C@H](N)C1CCCCC1,44,–,–,–
C[C@H](N)CC1CCCCC1,22,–,–,–
NC[C@H](O)c1ccccc1,–,4.85,1.69,–
NC[C@@H](O)c1ccccc1 (stereo in doubt; 9b),–,0.92,0.93,–
NCC(O)C1CCCCCCC1 (configuration not stated),–,0.27,0.62,–
CC(N)CC1CCCCCCC1 (configuration not stated),86,–,–,–
C[C@@H](N)CC1CCCCCCC1,157,–,–,–
C[C@H](N)Cc1ccccc1 (stereo in doubt; 1c) [DEXTROAMPHETAMINE],1380,–,–,–
NC[C@H](O)C1CCCCC1,–,1.85,2.43,–
C[C@H](N)c1ccccc1,149,–,–,–
NC[C@H](O)C1CCCCCCC1,–,0.38,0.88,–
NCCC1CCCCC1,41,–,–,–
C[C@@H](N)c1ccccc1,1680,–,–,–
CC(N)CC1CC=CCC1 (configuration not stated),110,–,–,–
CC(N)Cc1ccccc1 (configuration not stated) [AMPHETAMINE],740,–,–,–
C[C@@H](N)CC1CCCCC1,290,–,–,–
NC[C@@H](O)C1CCCCCCC1,–,0.27,0.67,–
CC(N)CC1CCCCC1 (configuration not stated),109,–,–,–
C[C@@H](N)C1CCCCC1,412,–,–,–
NCC(O)C1CCCCC1 (configuration not stated),–,0.99,2.47,–
C[C@H](N)CC1CCCCCCC1,34,–,–,–
NCCc1ccccc1 [PHENETHYLAMINE],467,–,–,–
NC[C@@H](O)C1CCCCC1,–,0.64,1.88,–
CC(N)c1ccccc1 (configuration not stated),460,–,–,–
NC[C@@H](O)c1ccccc1 (stereo in doubt; 9a),–,1.75,1.62,–
"Phenylethanolamine N-methyltransferase (Bos taurus), P10938 (protein) MSGTDRSQAAGAVPDSDPGLAAVSSAYQRFEPRAYLRNNYAPPRGDLSCPDGVGPWKLRCLAQTFATGEVSGRTLIDIGSGPTIYQLLSACAHFEDITMTDFLEVNRQELRLWLREEPGAFDWSVYSQHVCLIEGKGESWQEKECQLRARVKRILPIDVHRPQPLGAGGLAPLPADALVSAFCLEAVSPDLASFQRALDHITTLLRPGGHLLLIGALEESWYLAGEARLAVVPVREEEVREALVRTATRCGICARTPMPAHLQTGVDDVKGIFFTRAQKKVGV",–,–,–,Km [4]: 43 µM; Km [5]: 34 µM; Km [6]: 40 µM; Km [7]: 96 µM and 108 µM; Km [8]: 76 µM; Km [9]: 43 µM; Km [10]: 286 µM
